Measurements as given in US11111217B2, “2-arylbenzimidazoles as Ppargc1a activators for treating neurodegenerative diseases” (The Board of Trustees of the Leland Stanford Junior …, priority 2018, dated 2021).

The compounds below were run on TNF-α production by BV2 cells or PBMC (assay: Cellular assay to measure TNF-α inhibition (LPS-stimulated, ELISA)). Details: BV2 cells or PBMC (not specified), LPS 100 ng/ml over 24 hours, relative to DMSO vehicle; compound concentration not stated.
Assay type: cell-based, murine (BV2) or human (PBMC)
Description: Oxidative metabolism exerts an anti-inflammatory effect on myeloid cell phenotype (O'Neill L A, Front Immunol. 2014) and Ppargc1a can promote this energy metabolic pathway (Spiegelman BM, Novartis Found Symp. 2007). Thus, pharmacological activation of Ppargc1a would be expected to inhibit the inflammatory response of myeloid cells. This phenomenon can be measured in cultures by a TNF-α inhibition assay.
Cellular Assay Protocol to Measure TNF-α Inhibition
The murine myeloid cell line BV2 or human peripheral blood mononuclear cells (PBMC) are cultured in RPMI 1640 media (Cat #11875119, Gibco) supplemented with 10% fetal bovine serum and 1% L-glutamine 1% penicillin. These cells are then stimulated with 100 ng/ml of lipopolysaccharide (LPS, O111:B34, Cat # L2630, Sigma) over 24 hours. LPS stimulation results in the secretion of the inflammatory cytokine TNF-α by BV2 cells or PBMC, which can be quantified by ELISA in culture supernatant samples per manufacturer's protocol (Cat #558273 for BV2 and Cat #558299 for PBMC, BD Biosciences). To determine whether exampl compounds 1-78 inhibit TNF-α production by BV2 cells or PBMC, the cells were cultured in the presence of the compounds at different concentrations, and fold reduction in TNF-α production relative to TNF-α production by the same cells cultured in the presence of dimethylsulfoxide (as vehicle control) was determined.
For Clc1cccc(-c2nc3ccccc3[nH]2)c1 [Example 27, 2-(3-Chlorophenyl)-1H-benzo[d]imidazole], the “TNF α Inhibition” value was “C (C = <50% inh.)”. Cc1cccc2[nH]c(-c3ccc(C(C)(C)C)cc3)nc12 [Example 45, 2-(4-tert-Butylphenyl)-4-methyl-1H-benzo[d]imidazole] was tested, and the “TNF α Inhibition” value was “A (A = >80% inh.)”. In the case of CC(C)Oc1ccc(-c2nc3ccccc3[nH]2)cc1 [Example 69, 2-(4-Isopropoxyphenyl)-1H-benzo[d]imidazole], the “TNF α Inhibition” value is reported as “A (A = >80% inh.)”. With FC(F)(F)c1cccc(-c2nc3ccccc3[nH]2)c1 [Example 39, 2-(3-Trifluoromethylphenyl)-1H-benzo[d]imidazole] the “TNF α Inhibition” value was “B (B = 50-80% inh.)”. Brc1ccc(-c2nc3ccccc3[nH]2)cc1 [Example 26, 2-(4-Bromophenyl)-1H-benzo[d]imidazole] was tested, and the “TNF α Inhibition” value was “C (C = <50% inh.)”. Cc1ccccc1-c1nc2ccccc2[nH]1 [Example 12, 2-(2-Methylphenyl)-1H-benzo[d]imidazole] was tested, and the “TNF α Inhibition” value was “C (C = <50% inh.)”. With CC(C)(C)c1ccc(-c2nc3cc(C#N)ccc3[nH]2)cc1 [Example 31, 2-(4-tert-Butylphenyl)-1H-benzo[d]imidazole-5-carbonitrile] the “TNF α Inhibition” value was “A (A = >80% inh.)”. With CC(C)(C)c1ccc(-c2nc3c(Br)cccc3[nH]2)cc1 [Example 54, 2-(4-tert-Butylphenyl)-4-bromo-1H-benzo[d]imidazole] the “TNF α Inhibition” value was “A (A = >80% inh.)”. In the case of Clc1ccc(-c2nc3ccccc3[nH]2)cc1 [Example 8, 2-(4-Chlorophenyl)-1H-benzo[d]imidazole], the “TNF α Inhibition” value is reported as “C (C = <50% inh.)”. In the case of CC(C)(C)c1ccc(-c2nc3c(O)cccc3[nH]2)cc1 [Example 50, 2-(4-tert-Butylphenyl)-1H-benzo[d]imidazol-4-ol], the “TNF α Inhibition” value is reported as “A (A = >80% inh.)”. For FC(F)Oc1ccc(-c2nc3ccccc3[nH]2)cc1 [Example 70, 2-(4-(Difluoromethoxy)phenyl)-1H-benzo[d]imidazole], the “TNF α Inhibition” value was “B (B = 50-80% inh.)”. With CC(C)(C)c1cc(-c2nc3ccccc3[nH]2)cc(C(C)(C)C)c1 [Example 53, 2-(3,5-di-tert-Butylphenyl)-1H-benzo[d]imidazole] the “TNF α Inhibition” value was “C (C = <50% inh.)”. CC(C)(C)c1ccc(-c2nc3cc(Br)ccc3[nH]2)cc1 [Example 43, 2-(4-tert-Butylphenyl)-5-bromo-1H-benzo[d]imidazole] was tested, and the “TNF α Inhibition” value was “A (A = >80% inh.)”. COc1ccccc1-c1nc2ccccc2[nH]1 [Example 25, 2-(2-Methoxy-phenyl)-1H-benzo[d]imidazole] was tested, and the “TNF α Inhibition” value was “C (C = <50% inh.)”. With FC(F)(F)C1(c2ccc(-c3nc4ccccc4[nH]3)cc2)CC1 [Example 59, 2-[4-[1-(Trifluoromethyl)-cyclopropyl]phenyl]-1H-benzo[d]imidazole] the “TNF α Inhibition” value was “C (C = <50% inh.)”. For Oc1cccc(-c2nc3ccccc3[nH]2)c1 [Example 40, 2-(3-Hydroxyphenyl)-1H-benzo[d]imidazole], the “TNF α Inhibition” value was “C (C = <50% inh.)”. Fc1ccccc1-c1nc2ccccc2[nH]1 [Example 17, 2-(2-Fluorophenyl)-1H-benzo[d]imidazole] was tested, and the “TNF α Inhibition” value was “C (C = <50% inh.)”. In the case of CC(C)(C)Oc1ccc(-c2nc3ccccc3[nH]2)cc1 [Example 71, 2-(4-tert-Butoxyphenyl)-1H-benzo[d]imidazole], the “TNF α Inhibition” value is reported as “B (B = 50-80% inh.)”. With CC(C)(C)c1ccc(-c2nc3cc(O)ccc3[nH]2)cc1 [Example 32, 2-(4-tert-Butylphenyl)-1H-benzo[d]imidazol-5-ol] the “TNF α Inhibition” value was “A (A = >80% inh.)”. In the case of FC(F)(F)Oc1ccc(-c2nc3ccccc3[nH]2)cc1 [Example 66, 2-(4-Trifluoromethoxyphenyl)-1H-benzo[d]imidazole], the “TNF α Inhibition” value is reported as “C (C = <50% inh.)”. For Nc1ccccc1-c1nc2ccccc2[nH]1 [Example 48, 2-(2-Aminophenyl)-1H-benzo[d]imidazole], the “TNF α Inhibition” value was “C (C = <50% inh.)”. In the case of CC(C)(C)c1ccc(-c2nc3c(F)cccc3[nH]2)cc1 [Example 49, 2-(4-tert-Butylphenyl)-4-fluoro-1H-benzo[d]imidazole], the “TNF α Inhibition” value is reported as “A (A = >80% inh.)”. For CC(C)(C)c1ccc(-c2nc3cc(F)ccc3[nH]2)cc1 [Example 41, 2-(4-tert-Butylphenyl)-5-fluoro-1H-benzo[d]imidazole], the “TNF α Inhibition” value was “C (C = <50% inh.)”. COc1cccc(-c2nc3ccccc3[nH]2)c1 [Example 20, 2-(3-Methoxy-phenyl)-1H-benzo[d]imidazole] was tested, and the “TNF α Inhibition” value was “C (C = <50% inh.)”. c1ccc(Oc2ccc(-c3nc4ccccc4[nH]3)cc2)cc1 [Example 72, 2-(4-Phenoxyphenyl)-1H-benzo[d]imidazole] was tested, and the “TNF α Inhibition” value was “C (C = <50% inh.)”. For CC(C)(C)c1ccc(-c2nc3c(C(N)=O)cccc3[nH]2)cc1 [Example 74, 2-(4-tert-Butylphenyl)-1H-benzo[d]imidazol-4-carboxamide], the “TNF α Inhibition” value was “A (A = >80% inh.)”. In the case of CC(C)(C)c1ccc(-c2nc3ccccc3o2)cc1 [Example 4, 2-(4-tert-Butylphenyl)-1,3-benzoxazole], the “TNF α Inhibition” value is reported as “B (B = 50-80% inh.)”. For CC(C)(C)c1ccc(-c2nc3ccccc3[nH]2)cn1 [Example 10, 2-(6-tert-Butyl-3-pyridyl)-1H-benzo[d]imidazole], the “TNF α Inhibition” value was “A (A = >80% inh.)”. In the case of c1ccc(-c2nc3ccccc3[nH]2)cc1 [Example 14, 2-(Phenyl)-1H-benzo[d]imidazole], the “TNF α Inhibition” value is reported as “C (C = <50% inh.)”. With CC(C)(C)c1ccc(-c2nc3c(Cl)cccc3[nH]2)cc1 [Example 46, 2-(4-tert-Butylphenyl)-4-chloro-1H-benzo[d]imidazole] the “TNF α Inhibition” value was “A (A = >80% inh.)”. In the case of COc1ccc2[nH]c(-c3ccc(C(C)(C)C)cc3)nc2c1 [Example 29, 2-(4-tert-Butylphenyl)-5-methoxy-1H-benzo[d]imidazole], the “TNF α Inhibition” value is reported as “A (A = >80% inh.)”. With COc1cccc2[nH]c(-c3ccc(C(C)(C)C)cc3)nc12 [Example 51, 2-(4-tert-Butylphenyl)-4-methoxy-1H-benzo[d]imidazole] the “TNF α Inhibition” value was “A (A = >80% inh.)”. With c1ccc(COc2ccc(-c3nc4ccccc4[nH]3)cc2)cc1 [Example 73, 2-(4-Benzyloxyphenyl)-1H-benzo[d]imidazole] the “TNF α Inhibition” value was “C (C = <50% inh.)”. For Cn1c(-c2ccc(C(C)(C)C)cc2)nc2ccccc21 [Example 6, 2-(4-tert-Butylphenyl)-1-methyl-benzo[d]imidazole], the “TNF α Inhibition” value was “B (B = 50-80% inh.)”. Cc1ccc2[nH]c(-c3ccc(C(C)(C)C)cc3)nc2c1 [Example 38, 2-(4-tert-Butylphenyl)-5-methyl-1H-benzo[d]imidazole] was tested, and the “TNF α Inhibition” value was “A (A = >80% inh.)”. CCOc1ccc(-c2nc3ccccc3[nH]2)cc1 [Example 67, 2-(4-Ethoxyphenyl)-1H-benzo[d]imidazole] was tested, and the “TNF α Inhibition” value was “C (C = <50% inh.)”. FC(F)(F)c1ccc(-c2nc3ccccc3[nH]2)cc1 [Example 15, 2-(4-Trifluoro-methylphenyl)-1H-benzo[d]imidazole] was tested, and the “TNF α Inhibition” value was “C (C = <50% inh.)”. With CCCOc1ccc(-c2nc3ccccc3[nH]2)cc1 [Example 68, 2-(4-Propoxyphenyl)-1H-benzo[d]imidazole] the “TNF α Inhibition” value was “C (C = <50% inh.)”. With Clc1ccccc1-c1nc2ccccc2[nH]1 [Example 7, 2-(2-Chlorophenyl)-1H-benzo[d]imidazole] the “TNF α Inhibition” value was “C (C = <50% inh.)”. Brc1cccc(-c2nc3ccccc3[nH]2)c1 [Example 19, 2-(3-Bromophenyl)-1H-benzo[d]imidazole] was tested, and the “TNF α Inhibition” value was “C (C = <50% inh.)”. For CC(C)(C)c1ccc(-c2nc3ncccc3[nH]2)cc1 [Example 35, 2-(4-tert-Butylphenyl)-1H-imidazo[4,5-b]pyridine], the “TNF α Inhibition” value was “C (C = <50% inh.)”. With CC(C)(C)c1ccc(-c2nc3cc(Cl)ccc3[nH]2)cc1 [Example 37, 2-(4-tert-Butylphenyl)-5-chloro-1H-benzo[d]imidazole] the “TNF α Inhibition” value was “A (A = >80% inh.)”. In the case of CCc1ccc(-c2nc3ccccc3[nH]2)cc1 [Example 28, 2-(4-Ethylphenyl)-1H-benzo[d]imidazole], the “TNF α Inhibition” value is reported as “C (C = <50% inh.)”. In the case of COc1ccc(-c2nc3c(F)cc(F)cc3[nH]2)cc1 [Example 78, 4,6-Difluoro-2-(4-methoxyphenyl)-1H-benzo[d]imidazole], the “TNF α Inhibition” value is reported as “C (C = <50% inh.)”. In the case of CC(C)(C)c1ccc(-c2nc3cc(F)c(F)cc3[nH]2)cc1 [Example 52, 2-(4-tert-Butylphenyl)-5,6-difluoro-1H-benzo[d]imidazole], the “TNF α Inhibition” value is reported as “C (C = <50% inh.)”. In the case of CC(C)(C)c1ccc(-c2nc3c(N)cccc3[nH]2)cc1 [Example 62, 2-(4-tert-Butylphenyl)-1H-benzo[d]imidazol-4-amine], the “TNF α Inhibition” value is reported as “A (A = >80% inh.)”. In the case of Brc1ccccc1-c1nc2ccccc2[nH]1 [Example 23, 2-(2-Bromophenyl)-1H-benzo[d]imidazole], the “TNF α Inhibition” value is reported as “B (B = 50-80% inh.)”. Nc1cccc(-c2nc3ccccc3[nH]2)c1 [Example 47, 2-(3-Aminophenyl)-1H-benzo[d]imidazole] was tested, and the “TNF α Inhibition” value was “C (C = <50% inh.)”. Oc1ccc(-c2nc3ccccc3[nH]2)cc1 [Example 24, 2-(4-Hydroxy-phenyl)-1H-benzo[d]imidazole] was tested, and the “TNF α Inhibition” value was “A (A = >80% inh.)”.
